# From ChEMBL document CHEMBL3102753, “7-Azaindole-1-carboxamides as a new class of PARP-1 inhibitors” (Bioorg Med Chem, 2014)
# Columns and labels:
# [1] = Antiproliferative activity against BRCA2 gene mutated human Capan1 cells after 72 hrs by cell counting; details: CAPAN-1, 72 h
# [2] = target: T1, Poly [ADP-ribose] polymerase 1 (Homo sapiens, UniProt P09874); assay: Inhibition of recombinant human GST-fused PARP-1 expressed in Escherichia coli after 30 mins by fluorescence assay
# HCC1937 = assay: Antiproliferative activity against BRCA1 gene mutated human HCC1937 cells after 72 hrs by SRB assay; type: functional, cell-based
# Mus musculus [3] = assay: Toxicity in human MX1 cells harboring BRCA1 deletion and BRCA2 mutant xenografted SCID mouse assessed as reduction of body weight at 100 mg/kg, ip administered every 2 days for 2 weeks measured on day 38 relative to control; type: organism-based; parameters: dose 100 mg/kg, route intraperitoneal; scale not given: the % may be the effect or the level left; details: in vivo
# Mus musculus [4] = assay: Toxicity in human MX1 cells harboring BRCA1 deletion and BRCA2 mutant xenografted SCID mouse assessed as mortality at 100 mg/kg, ip administered every 2 days for 2 weeks measured on day 38 relative to control; type: organism-based; parameters: dose 100 mg/kg, route intraperitoneal; details: in vivo
# A2780 [5] = assay: Antiproliferative activity against human A2780 cells after 72 hrs by SRB assay; type: functional, cell-based; details: A2780, 72 h
# A2780 [6] = assay: Resistant factor, ratio of IC50 for human A2780/DX cells to IC50 for human A2780 cells; type: functional
# [7] = Antiproliferative activity against human A2780/DX cells after 72 hrs by SRB assay; type: functional, cell-based
# MX1 [8] = assay: Antitumor activity against human MX1 cells harboring BRCA1 deletion and BRCA2 mutant xenografted in SCID mouse assessed as reduction of tumor volume at 100 mg/kg, ip administered every 2 days for 2 weeks measured on day 38 relative to control; type: functional; parameters: scale not given: the % may be the effect or the level left; details: route intraperitoneal
# [9] = target: T1, Poly [ADP-ribose] polymerase 1; assay: Inhibition of PARP-1 in human HeLa cells assessed as decrease of H2O2-induced PARylation after 3 hrs by fluorescence assay; type: cell-based
# MX1 [10] = assay: Antitumor activity against human MX1 cells harboring BRCA1 deletion and BRCA2 mutant xenografted in SCID mouse assessed as reduction of tumor volume at 167 mg/kg, ip administered every 2 days for 2 weeks measured on day 38 relative to control; type: functional; parameters: scale not given: the % may be the effect or the level left; details: route intraperitoneal
# Mus musculus [11] = assay: Toxicity in human MX1 cells harboring BRCA1 deletion and BRCA2 mutant xenografted SCID mouse assessed as mortality at 167 mg/kg, ip administered every 2 days for 2 weeks measured on day 38 relative to control; type: organism-based; parameters: dose 167 mg/kg, route intraperitoneal; details: in vivo
# Mus musculus [12] = assay: Toxicity in human MX1 cells harboring BRCA1 deletion and BRCA2 mutant xenografted SCID mouse assessed as reduction of body weight at 167 mg/kg, ip administered every 2 days for 2 weeks measured on day 38 relative to control; type: organism-based; parameters: dose 167 mg/kg, route intraperitoneal; scale not given: the % may be the effect or the level left; details: in vivo
# [13] = Antiproliferative activity against BRCA2 gene mutated human Capan1 cells after 72 hrs by SRB assay; type: functional, cell-based; details: capan-1
# [14] = Homo sapiens, HCC1937, 72 h, read-out: IC50
# T1 sequence (P09874 whole entry, the tested form may be a part): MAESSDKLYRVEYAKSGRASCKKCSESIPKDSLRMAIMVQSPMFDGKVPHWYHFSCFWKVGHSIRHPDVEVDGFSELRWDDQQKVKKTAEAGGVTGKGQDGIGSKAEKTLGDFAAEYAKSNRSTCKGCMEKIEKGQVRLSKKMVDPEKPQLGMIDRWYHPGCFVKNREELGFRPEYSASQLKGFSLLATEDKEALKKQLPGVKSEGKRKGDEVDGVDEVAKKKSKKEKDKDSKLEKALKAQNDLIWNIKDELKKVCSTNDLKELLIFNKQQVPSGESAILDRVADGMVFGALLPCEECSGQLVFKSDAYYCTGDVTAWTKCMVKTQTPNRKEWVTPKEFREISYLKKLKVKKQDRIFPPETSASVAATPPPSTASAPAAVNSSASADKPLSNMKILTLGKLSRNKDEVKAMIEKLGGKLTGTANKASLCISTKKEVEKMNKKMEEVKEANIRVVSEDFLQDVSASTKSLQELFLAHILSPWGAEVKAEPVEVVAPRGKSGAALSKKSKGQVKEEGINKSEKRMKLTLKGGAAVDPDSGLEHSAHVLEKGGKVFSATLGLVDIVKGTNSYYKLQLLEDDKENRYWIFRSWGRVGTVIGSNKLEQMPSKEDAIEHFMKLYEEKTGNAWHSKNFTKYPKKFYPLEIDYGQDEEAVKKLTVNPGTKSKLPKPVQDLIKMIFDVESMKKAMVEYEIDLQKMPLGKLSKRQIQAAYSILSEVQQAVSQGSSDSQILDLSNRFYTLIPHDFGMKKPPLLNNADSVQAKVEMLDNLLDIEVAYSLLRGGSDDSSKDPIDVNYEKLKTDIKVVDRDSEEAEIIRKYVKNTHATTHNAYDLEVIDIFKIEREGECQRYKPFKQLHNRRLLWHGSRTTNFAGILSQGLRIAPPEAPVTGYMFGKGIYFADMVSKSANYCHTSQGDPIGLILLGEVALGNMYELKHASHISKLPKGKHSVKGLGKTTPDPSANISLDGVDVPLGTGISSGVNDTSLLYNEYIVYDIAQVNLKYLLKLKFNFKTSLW
SMILES,IC50 [2],IC50 (HCC1937; [14]),IC50 [1],also measured
NC(=O)n1ccc2cccnc21,2500 nM,> 200 µM,> 200 µM,
NC(=O)n1ccc2ccc(-c3ccccc3)nc21,270 nM,> 200 µM,> 200 µM,
CN(C)c1ccc(-c2ccc3ccn(C(N)=O)c3n2)cc1,880 nM,> 200 µM,> 200 µM,
NC(=O)n1ccc2ccc(-c3ccc(-c4ccccc4)cc3)nc21,> 5000 nM,> 200 µM,81.8 µM,
NC(=O)n1ccc2ccc(-c3ccccc3F)nc21,3000 nM,,,
NC(=O)n1ccc2ccc(-c3ccc(F)c(C(=O)N4CCN(C(=O)C5CC5)CC4)c3)nc21,1120 nM,,,
NC(=O)n1ccc2ccc(-c3ccc[nH]3)nc21,930 nM,61.4 µM,87.1 µM,
NC(=O)n1ccc2ccc(-c3ccc(CN4CCCCC4)cc3)nc21,70 nM,19.4 µM,22 µM,Activity (Mus musculus [3]): 1%; Activity (Mus musculus [4]): Non-toxic; IC50 (A2780 [5]): 2900 nM; Ratio IC50 (A2780 [6]): 3.9; IC50 [7]: 11.2 µM; Activity (MX1 [8]): 36%; EC50 [9]: 400 nM
NC(=O)n1ccc2ccc(N3CCCC3)nc21,220 nM,> 200 µM,83.8 µM,
CN1CCN(c2ccc3ccn(C(N)=O)c3n2)CC1,770 nM,111 µM,138 µM,
NC(=O)n1ccc2ccc(N3CCCCC3)nc21,3000 nM,,,
O=C(c1cc(Cc2n[nH]c(=O)c3ccccc23)ccc1F)N1CCN(C(=O)C2CC2)CC1 [OLAPARIB],,,6.3 µM,"Activity (MX1 [10]): 35%; Activity (Mus musculus [11]): Non-toxic; IC50 (A2780 [5]): 1000 nM; Activity (Mus musculus [12]): 0%; IC50 [7]: 41.9 µM; IC50 (HCC1937; Homo sapiens, HCC1937, 72 h): 10.3 µM"
C[C@]1(c2nc3c(C(N)=O)cccc3[nH]2)CCCN1 [VELIPARIB],,,,"IC50 [13]: 39.7 µM; IC50 (HCC1937; hcc1937, read-out: IC50): 97.2 µM"

# More lines, main results first:
IC50 [2],IC50 (HCC1937; [14]),SMILES,IC50 [1],also measured
3760 nM,> 200 µM,COc1ccc(-c2ccc3ccn(C(N)=O)c3n2)cc1,162 µM,
270 nM,> 200 µM,NC(=O)n1ccc2ccc(-c3ccc(F)cc3)nc21,61.1 µM,
2900 nM,72.3 µM,NC(=O)n1ccc2ccc(-c3ccc(C(=O)N4CCCCC4)cc3)nc21,24.4 µM,
2100 nM,17.2 µM,NC(=O)n1ccc2ccc(-c3ccc(CN4CCOCC4)cc3)nc21,15.9 µM,
1560 nM,41.2 µM,CN1CCN(Cc2ccc(-c3ccc4ccn(C(N)=O)c4n3)cc2)CC1,54.5 µM,
280 nM,15 µM,NC(=O)n1ccc2ccc(-c3ccc(CN4CCCC4)cc3)nc21,21.7 µM,
630 nM,13.5 µM,CN(C)Cc1ccc(-c2ccc3ccn(C(N)=O)c3n2)cc1,19.7 µM,
> 5000 nM,182 µM,NC(=O)Cn1ccc2ccc(-c3ccc(CN4CCCC4)cc3)nc21,182 µM,
